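Five concentrations, 48 hours, 96-well plates. Here, GI50 denotes the concentration required for 50% inhibition of growth. TGI: total growth inhibition.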
Legend:
Experiment in all cases: DTP human tumour cell line panel, 48 h; in the data active = GI50 below about 0.43 µM; inactive = the rest
786-0 renal = tested on: 786-0 renal
A549 NSCLC = tested on: A549 NSCLC
ACHN renal = tested on: ACHN renal
BT-549 breast = tested on: BT-549 breast
CAKI-1 renal = tested on: CAKI-1 renal
COLO 205 colon = tested on: COLO 205 colon
DU-145 prostate = tested on: DU-145 prostate
EKVX NSCLC = tested on: EKVX NSCLC
HCC-2998 colon = tested on: HCC-2998 colon
HCT-116 colon = tested on: HCT-116 colon
HCT-15 colon = tested on: HCT-15 colon
HL-60(TB) leukemia = tested on: HL-60(TB) leukemia
HOP-62 NSCLC = tested on: HOP-62 NSCLC
HOP-92 NSCLC = tested on: HOP-92 NSCLC
HS 578T breast = tested on: HS 578T breast
HT29 colon = tested on: HT29 colon
IGROV1 ovarian = tested on: IGROV1 ovarian
K-562 leukemia = tested on: K-562 leukemia
KM12 colon = tested on: KM12 colon
LOX IMVI melanoma = tested on: LOX IMVI melanoma
MALME-3M melanoma = tested on: MALME-3M melanoma
MCF7 breast = tested on: MCF7 breast
MDA-MB-231 breast = tested on: MDA-MB-231 breast
MDA-MB-435 = tested on: MDA-MB-435
MOLT-4 leukemia = tested on: MOLT-4 leukemia
NCI-H226 lung = tested on: NCI-H226 lung
NCI-H23 lung = tested on: NCI-H23 lung
NCI-H460 lung = tested on: NCI-H460 lung
NCI-H522 lung = tested on: NCI-H522 lung
OVCAR-4 ovarian = tested on: OVCAR-4 ovarian
OVCAR-5 ovarian = tested on: OVCAR-5 ovarian
OVCAR-8 ovarian = tested on: OVCAR-8 ovarian
PC-3 prostate = tested on: PC-3 prostate
RPMI-8226 leukemia = tested on: RPMI-8226 leukemia
RXF 393 renal = tested on: RXF 393 renal
SF-268 CNS = tested on: SF-268 CNS
SF-295 CNS = tested on: SF-295 CNS
SF-539 CNS = tested on: SF-539 CNS
SK-MEL-2 melanoma = tested on: SK-MEL-2 melanoma
SK-MEL-28 melanoma = tested on: SK-MEL-28 melanoma
SK-MEL-5 melanoma = tested on: SK-MEL-5 melanoma
SK-OV-3 ovarian = tested on: SK-OV-3 ovarian
SN12C renal = tested on: SN12C renal
SNB-19 CNS = tested on: SNB-19 CNS
SNB-75 CNS = tested on: SNB-75 CNS
SR leukemia = tested on: SR leukemia
SW-620 colon = tested on: SW-620 colon
T-47D breast = tested on: T-47D breast
TK-10 renal = tested on: TK-10 renal
U251 CNS = tested on: U251 CNS
UACC-257 melanoma = tested on: UACC-257 melanoma
UACC-62 melanoma = tested on: UACC-62 melanoma
UO-31 renal = tested on: UO-31 renal

COc1cccc2c1-c1ccccc1C2=O
47.1 µM: TGI (HCC-2998 colon)
4.62 µM: TGI (COLO 205 colon)
7.49 µM: TGI (SK-OV-3 ovarian)
active: GI50 (MDA-MB-435) 0.225 µM | GI50 (NCI-H522 lung) 0.276 µM | GI50 (RXF 393 renal) 0.329 µM | GI50 (SF-295 CNS) 0.352 µM
48.3 µM: TGI (MDA-MB-231 breast)
11.5 µM: TGI (NCI-H460 lung)
6.37 µM: TGI (HL-60(TB) leukemia)
0.79 µM: TGI (MDA-MB-435)
> 100 µM: TGI (786-0 renal) | TGI (A549 NSCLC) | TGI (ACHN renal) | TGI (BT-549 breast) | TGI (CAKI-1 renal) | TGI (DU-145 prostate) | TGI (EKVX NSCLC) | TGI (HCT-15 colon) | TGI (HOP-62 NSCLC) | TGI (HS 578T breast) | TGI (IGROV1 ovarian) | TGI (K-562 leukemia) | TGI (KM12 colon) | TGI (LOX IMVI melanoma) | TGI (MALME-3M melanoma) | TGI (MCF7 breast) | TGI (MOLT-4 leukemia) | TGI (NCI-H226 lung) | TGI (NCI-H23 lung) | TGI (OVCAR-4 ovarian) | TGI (OVCAR-5 ovarian) | TGI (OVCAR-8 ovarian) | TGI (PC-3 prostate) | TGI (RPMI-8226 leukemia) | TGI (SF-268 CNS) | TGI (SF-295 CNS) | TGI (SK-MEL-2 melanoma) | TGI (SK-MEL-28 melanoma) | TGI (SN12C renal) | TGI (SNB-19 CNS) | TGI (SNB-75 CNS) | TGI (SR leukemia) | TGI (SW-620 colon) | TGI (T-47D breast) | TGI (TK-10 renal) | TGI (U251 CNS) | TGI (UACC-257 melanoma) | TGI (UACC-62 melanoma) | TGI (UO-31 renal)
13.5 µM: TGI (SK-MEL-5 melanoma)
4.33 µM: TGI (NCI-H522 lung)
5.76 µM: TGI (SF-539 CNS)
85.2 µM: TGI (HOP-92 NSCLC)
inactive: GI50 (786-0 renal) 3.15 µM | GI50 (A549 NSCLC) 2.65 µM | GI50 (ACHN renal) 0.783 µM | GI50 (BT-549 breast) 1.17 µM | GI50 (CAKI-1 renal) 0.543 µM | GI50 (COLO 205 colon) 1.91 µM | GI50 (DU-145 prostate) 2.9 µM | GI50 (EKVX NSCLC) 9.49 µM | GI50 (HCC-2998 colon) 3.35 µM | GI50 (HCT-116 colon) 3.14 µM | GI50 (HCT-15 colon) 2.71 µM | GI50 (HL-60(TB) leukemia) 2.19 µM | GI50 (HOP-62 NSCLC) 1.65 µM | GI50 (HOP-92 NSCLC) 4.6 µM | GI50 (HS 578T breast) 0.815 µM | GI50 (HT29 colon) 3.03 µM | GI50 (IGROV1 ovarian) 1.46 µM | GI50 (K-562 leukemia) 0.801 µM | GI50 (KM12 colon) 3.42 µM | GI50 (LOX IMVI melanoma) 2.24 µM | GI50 (MALME-3M melanoma) 6.54 µM | GI50 (MCF7 breast) 1.14 µM | GI50 (MDA-MB-231 breast) 3.25 µM | GI50 (MOLT-4 leukemia) 4.25 µM | GI50 (NCI-H226 lung) 1.19 µM | GI50 (NCI-H23 lung) 4.2 µM | GI50 (NCI-H460 lung) 0.628 µM | GI50 (OVCAR-4 ovarian) 2.69 µM | GI50 (OVCAR-5 ovarian) 5.32 µM | GI50 (OVCAR-8 ovarian) 3.33 µM | GI50 (PC-3 prostate) 2.22 µM | GI50 (RPMI-8226 leukemia) 3.7 µM | GI50 (SF-268 CNS) 3.17 µM | GI50 (SF-539 CNS) 1.31 µM | GI50 (SK-MEL-2 melanoma) 2.49 µM | GI50 (SK-MEL-28 melanoma) 3.85 µM | GI50 (SK-MEL-5 melanoma) 2.31 µM | GI50 (SK-OV-3 ovarian) 1.03 µM | GI50 (SN12C renal) 4.85 µM | GI50 (SNB-19 CNS) 2.52 µM | GI50 (SNB-75 CNS) 0.431 µM | GI50 (SR leukemia) 3.66 µM | GI50 (SW-620 colon) 2.09 µM | GI50 (T-47D breast) 6.7 µM | GI50 (TK-10 renal) 9.8 µM | GI50 (U251 CNS) 2.9 µM | GI50 (UACC-257 melanoma) > 100 µM | GI50 (UACC-62 melanoma) 0.467 µM | GI50 (UO-31 renal) 4.46 µM
12.5 µM: TGI (HT29 colon)
49.2 µM: TGI (RXF 393 renal)
17.4 µM: TGI (HCT-116 colon)

— PubChem BioAssay (NCI)
